Data published in patent US20230346827A1 (priority 2020, published 2023).

System: rats subjected to sTBI
Assay: sTBI rats, LMW-DS 1, 5, 15 mg/kg s.c. 30 min post-TBI: HPLC of brain energy metabolites, antioxidants, oxidative/nitrosative stress biomarkers (Example 4)
Format: in vivo, rat
Details: for ATP/ADP / NAD+/NADH: adimensional ratio
Procedure: Male Wistar rats (n=160) of 300-350 g body weight were used in this study. They were fed with standard laboratory diet and water ad libitum in a controlled environment.
As the accepted anesthetic mixture, animals received 35 mg/kg b.w. ketamine and 0.25 mg/kg body weight midazolam by intramuscular injection. Diffuse sTBI was induced according to the “weight drop” impact acceleration model set up by Marmarou et al. J. Neurosurg. 1994, 80: 291-300. This model causes diffuse axonal injury and it is able to reproduce the physical and mechanical characteristics of the diffuse TBI in humans.
Severe TBI was induced by dropping a 450 g weight from 2 meters height onto the rat head protected by a helmet (metal disk previously fixed on the skull using dental cement) in order to uniformly distribute the mechanical force to the brain. Rats were placed prone on a bed of specific polyurethane foam inserted in a special container; this foam dissipates the major part of the potential energy (deriving from the mechanical forces) and prevents any rebound of the animal after the impact that could produce spinal damages.
After 2 or 7 days from TBI induction, rats were anesthetized again and then immediately sacrificed. These time points are coincident with the worst biochemical derangement (2 days) or, in the case of a mildly injured brain, with a full metabolic recovery (7 days).
The drug treatment consisted in a subcutaneous injection of 0.5 ml of LMW-DS (ILB®, Tikomed, Viken, Sweden, WO 2016/076780) and administered at 3 different concentrations (1, 5 and 15 mg/kg body weight), according to the schematic protocol described below. Sham-operated animals underwent the same procedure of anesthesia but TBI and were used as the control group.
(§1) Rats subjected to sTBI and receiving a single administration of LMW-DS after 30 minutes post-TBI, with sacrifice at 2 days post-TBI. Animals were divided in the following subgroups: • 1. 12 animals subjected to sTBI and treated with 1 mg/kg b.w. LMW-DS • 2. 12 animals subjected to sTBI and treated with 5 mg/kg b.w. LMW-DS • 3. 12 animals subjected to sTBI and treated with 15 mg/kg b.w. LMW-DS
as §1, with “at 7” for “at 2”
Rats (n = 12) subjected to sTBI and receiving repeated administrations of the maximal dose of LMW-DS (15 mg/kg b.w.) after 30 minutes, 3 days and 5 days post-TBI, with sacrifice at 7 days post-TBI. Four additional rats were used for the histo-morphological studies. Total rats in this group: n=16
To minimize metabolite loss, an in vivo craniectomy was performed in all animals during anesthesia. The rat skull was carefully removed, the brain was exposed, sharply cut along the sagittal fissure and the two hemispheres were separated. The hemispheres dedicated to biochemical analyses were freeze-clamped by aluminum tongues pre-cooled in liquid nitrogen and then immersed in liquid nitrogen. The freeze-clamping procedure was introduced to accelerate freezing of the tissue, thus minimizing potential metabolite loss.
Tissue homogenization for metabolite analyses was effected as described below. After the wet weight (w.w.) determination, the frozen hemispheres were placed into 7 ml of ice-cold, nitrogen-saturated, precipitating solution (1:10 w/v) composed by CH3CN + 10 mM KH2PO4, pH 7.40, (3:1; v:v), and the homogenization was performed using an Ultra-Turrax homogenizer set at 24,000 rpm/min (Janke & Kunkel, Staufen, Germany). […]

[1] = 15 mg/kg repeated, 7 d post-sTBI

Question: What does the source list for sodium salt of dextran sulfate [LMW-DS]?
Answer: Malonyl-CoA (5 mg/kg, 7 d post-sTBI): 6.02 ± 1.09 nmol/g w.w.; NADH (5 mg/kg, 7 d post-sTBI): 8.83 ± 1.26 nmol/g w.w.; NADPH (5 mg/kg, 7 d post-sTBI): 12.30 ± 2.86 nmol/g w.w.; NADP^+ (5 mg/kg, 7 d post-sTBI): 24.45 ± 8.97 nmol/g w.w.; NAD^+ (5 mg/kg, 7 d post-sTBI): 293.36 ± 41.55 nmol/g w.w.; NO2 (5 mg/kg, 7 d post-sTBI): 59.61 ± 12.91 nmol/g w.w.; NO3 (5 mg/kg, 7 d post-sTBI): 234.45 ± 40.05 nmol/g w.w.; UDP (5 mg/kg, 7 d post-sTBI): 44.19 ± 6.22 nmol/g w.w.; UDP-Gal (5 mg/kg, 7 d post-sTBI): 132.66 ± 9.12 nmol/g w.w.; UDP-GalNac (5 mg/kg, 7 d post-sTBI): 17.37 ± 4.98 nmol/g w.w.; UDP-Glc (5 mg/kg, 7 d post-sTBI): 58.10 ± 11.81 nmol/g w.w.; UDP-GlcNac (5 mg/kg, 7 d post-sTBI): 85.14 ± 29.45 nmol/g w.w.; UMP (5 mg/kg, 7 d post-sTBI): 167.18 ± 32.39 nmol/g w.w.; URACIL (5 mg/kg, 7 d post-sTBI): 18.34 ± 3.77 nmol/g w.w.; URIC ACID (5 mg/kg, 7 d post-sTBI): 17.26 ± 4.11 nmol/g w.w.; URIDINE (5 mg/kg, 7 d post-sTBI): 134.60 ± 31.89 nmol/g w.w.; UTP (5 mg/kg, 7 d post-sTBI): 175.02 ± 30.65 nmol/g w.w.; XANTHINE (5 mg/kg, 7 d post-sTBI): 14.33 ± 4.05 nmol/g w.w.; β-PSEUDOURIDINE (5 mg/kg, 7 d post-sTBI): 17.51 ± 3.25 nmol/g w.w.; ATP/ADP (5 mg/kg, 7 d post-sTBI): 6.28 ± 0.80; NAD+/NADH (5 mg/kg, 7 d post-sTBI): 33.90 ± 7.19; ADENOSINE [1]: 40.84 ± 30.25 nmol/g w.w.; ADP [1]: 260.32 ± 34.67 nmol/g w.w.; ADP-Ribose [1]: 13.23 ± 3.32 nmol/g w.w.; AMP [1]: 43.12 ± 3.39 nmol/g w.w.; ASCORBIC ACID [1]: 2617.09 ± 315.18 nmol/g w.w.; ATP [1]: 1971.17 ± 158.57 nmol/g w.w.; Acetyl-CoA [1]: 37.91 ± 6.46 nmol/g w.w.; CDP choline [1]: 11.72 ± 3.76 nmol/g w.w.; CMP [1]: 31.21 ± 13.28 nmol/g w.w.; CREATININE [1]: 9.07 ± 1.60 nmol/g w.w.; CTP [1]: 92.67 ± 16.27 nmol/g w.w.; CYTIDINE [1]: 72.85 ± 25.63 nmol/g w.w.; CYTOSINE [1]: 8.76 ± 1.88 nmol/g w.w.; CoA-SH [1]: 45.76 ± 5.87 nmol/g w.w.; GDP [1]: 109.06 ± 12.46 nmol/g w.w.; GDP Glucose [1]: 106.42 ± 12.45 nmol/g w.w.; GMP [1]: 61.86 ± 29.28 nmol/g w.w.; GSH [1]: 2342.03 ± 308.72 nmol/g w.w.; GTP [1]: 466.06 ± 42.38 nmol/g w.w.; GUANINE [1]: 3.32 ± 1.41 nmol/g w.w.; GUANOSINE [1]: 19.66 ± 4.10 nmol/g w.w.; HYPOXANTHINE [1]: 4.10 ± 1.19 nmol/g w.w.; IMP [1]: 141.84 ± 36.32 nmol/g w.w.; INOSINE [1]: 139.26 ± 15.62 nmol/g w.w.; MDA [1]: 4.09 ± 0.67 nmol/g w.w.; Malonyl-CoA [1]: 12.56 ± 2.27 nmol/g w.w.; NADH [1]: 11.05 ± 1.52 nmol/g w.w.; NADPH [1]: 11.21 ± 2.60 nmol/g w.w.; NADP^+ [1]: 16.56 ± 6.08 nmol/g w.w.; NAD^+ [1]: 401.73 ± 56.89 nmol/g w.w.; NO2 [1]: 130.69 ± 28.31 nmol/g w.w.; NO3 [1]: 271.69 ± 46.41 nmol/g w.w.; UDP [1]: 37.12 ± 5.22 nmol/g w.w.; UDP-Gal [1]: 135.15 ± 9.29 nmol/g w.w.; UDP-GalNac [1]: 16.50 ± 4.73 nmol/g w.w.; UDP-Glc [1]: 61.37 ± 12.47 nmol/g w.w.; UDP-GlcNac [1]: 86.42 ± 29.89 nmol/g w.w.; UMP [1]: 107.66 ± 20.86 nmol/g w.w.; URACIL [1]: 24.13 ± 4.96 nmol/g w.w.; URIC ACID [1]: 7.80 ± 1.86 nmol/g w.w.; URIDINE [1]: 97.21 ± 23.03 nmol/g w.w.; UTP [1]: 133.72 ± 23.42 nmol/g w.w.; XANTHINE [1]: 11.24 ± 3.18 nmol/g w.w.; β-PSEUDOURIDINE [1]: 16.72 ± 3.10 nmol/g w.w.; ATP/ADP [1]: 7.67 ± 0.97; NAD+/NADH [1]: 37.47 ± 9.46; ADENOSINE (15 mg/kg, 2 d post-sTBI): 53.25 ± 12.75 nmol/g w.w.; ADP (15 mg/kg, 2 d post-sTBI): 346.37 ± 29.79 nmol/g w.w.; ADP-Ribose (15 mg/kg, 2 d post-sTBI): 23.06 ± 4.63 nmol/g w.w.; AMP (15 mg/kg, 2 d post-sTBI): 66.26 ± 10.74 nmol/g w.w.; ASCORBIC ACID (15 mg/kg, 2 d post-sTBI): 2783.04 ± 160.17 nmol/g w.w.; ATP (15 mg/kg, 2 d post-sTBI): 1556.54 ± 91.20 nmol/g w.w.; Acetyl-CoA (15 mg/kg, 2 d post-sTBI): 32.38 ± 3.77 nmol/g w.w.; CDP choline (15 mg/kg, 2 d post-sTBI): 7.07 ± 1.05 nmol/g w.w.; CMP (15 mg/kg, 2 d post-sTBI): 25.61 ± 5.23 nmol/g w.w.; CREATININE (15 mg/kg, 2 d post-sTBI): 11.77 ± 2.19 nmol/g w.w.; CTP (15 mg/kg, 2 d post-sTBI): 37.53 ± 7.59 nmol/g w.w.; CYTIDINE (15 mg/kg, 2 d post-sTBI): 11.46 ± 2.07 nmol/g w.w.; CYTOSINE (15 mg/kg, 2 d post-sTBI): 13.57 ± 1.66 nmol/g w.w.; CoA-SH (15 mg/kg, 2 d post-sTBI): 9.35 ± 1.03 nmol/g w.w.
